Structures are written as SMILES. pIC50: −log10 of the molar value. Like-named read-outs stand apart in the source and are kept apart here. Bounds are passed on as bounds.

For assay [1], the system named is A549 (human lung carcinoma) cells. The assay can be described thus: Cell viability assay (CellTiter-Glo), A549. The class given is cell-based. As to conditions: 72 h. The method, then: (§1) MIA PaCa-2 (human pancreatic carcinoma; ATCC CRL-1420) or A549 (human lung carcinoma; ATCC CCL-185) cells were cultured in RPMI 1640 medium containing 10% fetal bovine serum and 1× penicillin/streptomycin/L-glutamine. Cells were seeded in 384-well plates at a density of 1.67E+04 cells/mL and incubated at 37° C., 5% CO2, overnight. Serially-diluted compound or DMSO was added to the cells, and plates were incubated at 37° C., 5% CO2 for 72 h. Cell viability was measured using a CellTiter-Glo® Luminescent Cell Viability Assay kit (Promega) according to the manufacturer's protocol. The luminescence signal of treated samples was normalized to DMSO control, and data were analyzed using a 4-parameter logistic model to calculate IC50 values.

Assay [2] concerns MIA PaCa-2 (human pancreatic carcinoma) cells. Kind of assay: Cell viability assay (CellTiter-Glo), MIA PaCa-2. The class given is cell-based. The settings on record: 72 h. The method, then:
as §1
Background: ATP-based viability assays read luminescence as a measure of living cells.

Assay [3] has as its target GDP-bound KRAS protein (aa 1-169), containing both G12C and C118A amino acid substitutions (Homo sapiens, UniProt P01116, C118A/G12C). Kind of assay: Coupled nucleotide exchange assay (SOS-mediated, AlphaScreen). The class given is biochemical. Here is the method:
Coupled Nucleotide Exchange Assay:
For all subsequent steps, DTT was added to the reaction buffer at a final concentration of 1 mM. […] The assay plates were then read on a plate reader measuring luminescence signal. Signal intensity of compound-containing wells were normalized to DMSO control, and data were analyzed using a 4-parameter logistic model to calculate IC50 values.
In general terms: In Alpha technology, singlet oxygen from a donor bead excites a nearby acceptor bead.

Where [4] appears, read: 2 h compound pre-incubation, read-out: Avg 2 h Coupled exchange IC50.
[5] abbreviates: 20 h compound pre-incubation (values marked * in Table 6), read-out: Avg 20 h Coupled exchange IC50.

Sequence of GDP-bound KRAS protein (aa 1-169), containing both G12C and C118A amino acid substitutions (P01116 1-169 isoform P01116-2 G12C/C118A): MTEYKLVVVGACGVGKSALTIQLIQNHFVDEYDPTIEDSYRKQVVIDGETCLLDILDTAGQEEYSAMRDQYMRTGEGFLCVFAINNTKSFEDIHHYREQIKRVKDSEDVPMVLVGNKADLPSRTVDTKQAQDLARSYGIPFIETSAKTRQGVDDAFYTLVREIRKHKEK

Usually pIC50 stands for the negative decadic logarithm of the IC50, by convention in mol/L. Usually IC50 stands for the concentration that gives 50% inhibition. With `C=CC(=O)N1CC2(C[C@H](CO)N(c3nc4c(c(N[C@H](CC(=O)NC)CC(C)C)n3)CCCC4)C2)C1` (single isomer, unassigned) [Example 1-24-1], the results for the negative-log IC50 (pIC50) in assay [1] and in assay [2] were under 4.60 and 5.22, respectively. Also, the IC50 in assay [3] (setting [4]) worked out at 4580 nM.

For the molecule `C=CC(=O)N1CC2(CCN(c3nc(N[C@H](CC(=O)NC)CC(C)C)c4nn(C)cc4n3)C2)C1` [Example 1-10, (3S)-N,5-dimethyl-3-((2-methyl-5-(2-(2-propenoyl)-2,6-diazaspiro[3.4]octan-6-yl)-2H-pyrazolo[4,3-d]pyrimidin-7-yl)amino)hexanamide], the pIC50 is under 4.60 in assay [1], 5.44 in assay [2] and 6.04 in assay [3] (setting [4]).

As for `C=CC(=O)N1CC2(CCN(c3nc(N[C@H](CC(=O)NC)CC(C)C)c4ncsc4n3)C2)C1` [Example 1-11, (3S)-N,5-dimethyl-3-((5-(2-(2-propenoyl)-2,6-diazaspiro[3.4]octan-6-yl)[1,3]thiazolo[5,4-d]pyrimidin-7-yl)amino)hexanamide], the pIC50 is under 5.30 in assay [1], under 5.30 in assay [2] and 6.40 in assay [3] (setting [5]).

`C=CC(=O)N1CC2(CCN(c3nc4c(c(N[C@H](Cc5nc(C)no5)CC(C)C)n3)CCC(C)(C)C4)C2)C1` [Example 1-39, 1-(6-(7,7-dimethyl-4-(((2S)-4-methyl-1-(3-methyl-1,2,4-oxadiazol-5-yl)-2-pentanyl)amino)-5,6,7,8-tetrahydro-2-quinazolinyl)-2,6-diazaspiro[3.4]octan-2-yl)-2-propen-1-one]: the pIC50 in assay [1] was under 4.60; in assay [2] it was 6.10; in assay [3] (setting [4]) it was 6.16.

As for `C=CC(=O)N1CC2(CCN(c3nc4c(c(N[C@@H](CC(C)C)C(=O)NC)n3)CCCC4)C2)C1` [Example 1-60, (S)-2-((2-(2-acryloyl-2,6-diazaspiro[3.4]octan-6-yl)-5,6,7,8-tetrahydroquinazolin-4-yl)amino)-N,4-dimethylpentanamide], the pIC50 was 4.75 in assay [1] and 5.15 in assay [2]. The IC50 in assay [3] (setting [4]) is 8280 nM.

Turning to `C=CC(=O)N1CC2(CCN(c3nc(N[C@H](CC(=O)NC)CC(C)C)c4ccn(C)c4n3)C2)C1` [Example 1-16, (3S)-N,5-dimethyl-3-((7-methyl-2-(2-(2-propenoyl)-2,6-diazaspiro[3.4]octan-6-yl)-7H-pyrrolo[2,3-d]pyrimidin-4-yl)amino)hexanamide], the pIC50 in assay [1] is under 4.60; in assay [2] it was 5.34; in assay [3] (setting [5]), 6.04.

As to `C=CC(=O)N1CC2(CCN(c3nc4c(c(N[C@H](CC(=O)NC)Cc5ccccc5)n3)CCC(C)(C)C4)C2)C1` [Example 1-50, (3S)-3-((7,7-dimethyl-2-(2-(2-propenoyl)-2,6-diazaspiro[3.4]octan-6-yl)-5,6,7,8-tetrahydro-4-quinazolinyl)amino)-N-methyl-4-phenylbutanamide], the figures for the pIC50 in assay [1], in assay [2] and in assay [3] (setting [4]) were under 4.60, 6.23 and 5.88, respectively.

Take `C=CC(=O)N1CC2(CCN(c3nc(N[C@H](CC(=O)NC)CC(C)C)c4ncccc4n3)C2)C1` [Example 1-37, (3S)-N,5-dimethyl-3-((2-(2-(2-propenoyl)-2,6-diazaspiro[3.4]octan-6-yl)pyrido[3,2-d]pyrimidin-4-yl)amino)hexanamide]: the values for the pIC50 in assay [1], in assay [2] and in assay [3] (setting [4]) were under 4.60, 6.20 and 6.13, respectively.

For the molecule `C=CC(=O)N1CC2(CCN(c3nc4c(c(N[C@@H](CC(=O)NC)c5cccc(C#N)c5)n3)CCCC4)C2)C1` (single isomer, unassigned) [Example 1-21-1], the pIC50 was under 4.60 in assay [1] and 4.98 in assay [2]. For the same molecule, the IC50 in assay [3] (setting [4]) amounted to 9085 nM.

For `C=CC(=O)N1CC2(CCN(c3nc(N[C@H](CC(=O)NC)CC(C)C)c4ccc(C#N)cc4n3)C2)C1` [Example 1-26, (3S)-3-((7-cyano-2-(2-(2-propenoyl)-2,6-diazaspiro[3.4]octan-6-yl)-4-quinazolinyl)amino)-N,5-dimethylhexanamide], the values for the negative-log IC50 (pIC50) in assay [1], in assay [2] and in assay [3] (setting [4]) were under 4.60, 6.73 and 6.74, respectively.

Turning to `C=CC(=O)N1CC2(CCN(c3nc(N[C@H](CC(=O)NC)CC(C)C)c4c(n3)[C@H](C)CCC4)C2)C1` [Example 1-8, (3S)-N,5-dimethyl-3-(((8R)-8-methyl-2-(2-(2-propenoyl)-2,6-diazaspiro[3.4]octan-6-yl)-5,6,7,8-tetrahydro-4-quinazolinyl)amino)hexanamide], the pIC50 was under 5.30 in assay [1], 6.00 in assay [2] and 5.96 in assay [3] (setting [4]).

`C=CC(=O)N1CC2(CCN(c3nc4c(c(N[C@H](Cc5nnc(C)o5)CC(C)C)n3)CCCC4)C2)C1` [Example 1-22, 1-(6-(4-(((2S)-4-methyl-1-(5-methyl-1,3,4-oxadiazol-2-yl)-2-pentanyl)amino)-5,6,7,8-tetrahydro-2-quinazolinyl)-2,6-diazaspiro[3.4]octan-2-yl)-2-propen-1-one]: the values for the pIC50 in assay [1], in assay [2] and in assay [3] (setting [4]) were under 4.60, 6.55 and 6.08, respectively.

For the molecule `C=CC(=O)N1CC2(CCN(c3nc4c(c(N[C@H](CC(=O)NC)CC(C)C)n3)CCC(C)(C)C4)C2)C1` [Example 1-29, (3S)-3-((7,7-dimethyl-2-(2-(2-propenoyl)-2,6-diazaspiro[3.4]octan-6-yl)-5,6,7,8-tetrahydro-4-quinazolinyl)amino)-N,5-dimethylhexanamide], the pIC50 in assay [1] is under 4.60; in assay [2], 7.51.

On to `C=CC(=O)N1CC2(C1)CN(c1nc(N[C@H](CC(=O)NC)CC(C)C)c3ccccc3n1)CC2(F)F` [Example 1-18, (3S)-3-((2-(8,8-difluoro-2-(2-propenoyl)-2,6-diazaspiro[3.4]octan-6-yl)-4-quinazolinyl)amino)-N,5-dimethylhexanamide], for which the results for the pIC50 in assay [1], in assay [2] and in assay [3] (setting [4]) were 5.20, 6.01 and 6.48, respectively.

With `C=CC(=O)N1CC2(CCN(c3nc4c(c(N[C@H](Cc5ncco5)CC(C)C)n3)CCCC4)C2)C1` [Example 1-57, 1-(6-(4-(((2S)-4-methyl-1-(1,3-oxazol-2-yl)-2-pentanyl)amino)-5,6,7,8-tetrahydro-2-quinazolinyl)-2,6-diazaspiro[3.4]octan-2-yl)-2-propen-1-one], the pIC50 is 4.75 in assay [1], 5.60 in assay [2] and 5.68 in assay [3] (setting [4]).

Take `C=CC(=O)N1CC2(CCN(c3nc4c(c(N[C@H](Cc5noc(C)n5)CC(C)C)n3)CCC(C)(C)C4)C2)C1` [Example 1-44, 1-(6-(7,7-dimethyl-4-(((2S)-4-methyl-1-(5-methyl-1,2,4-oxadiazol-3-yl)-2-pentanyl)amino)-5,6,7,8-tetrahydro-2-quinazolinyl)-2,6-diazaspiro[3.4]octan-2-yl)-2-propen-1-one]: the results for the pIC50 in assay [1], in assay [2] and in assay [3] (setting [4]) were 4.66, 6.50 and 6.42, respectively.

For `C=CC(=O)N1CC2(CCN(c3cc4ccccc4c(N[C@H](CC(=O)NC)CC(C)C)n3)C2)C1` [Example 1-6, (3S)-N,5-dimethyl-3-((3-(2-(2-propenoyl)-2,6-diazaspiro[3.4]octan-6-yl)-1-isoquinolinyl)amino)hexanamide], the pIC50 in assay [1] is under 4.60; in assay [2] it was 5.09; in assay [3] (setting [5]) it was 6.37.

Turning to `C=CC(=O)N1CC2(CCN(c3nc(N[C@H](CC(=O)NC)CC(C)C)c4cc(C)ccc4n3)C2)C1` [Example 1-41, (3S)-N,5-dimethyl-3-((6-methyl-2-(2-(2-propenoyl)-2,6-diazaspiro[3.4]octan-6-yl)-4-quinazolinyl)amino)hexanamide], the pIC50 in assay [1] was under 4.60; in assay [2] it was 5.91; in assay [3] (setting [4]), 6.11.

As for `C=CC(=O)N1CC2(CCN(c3nc(N[C@H](CC(=O)NC)CC(C)C)c4ccc(C5CC5)cc4n3)C2)C1` [Example 1-40, (3S)-3-((7-cyclopropyl-2-(2-(2-propenoyl)-2,6-diazaspiro[3.4]octan-6-yl)-4-quinazolinyl)amino)-N,5-dimethylhexanamide], the pIC50 in assay [1] was 4.72; in assay [2], 6.77; in assay [3] (setting [4]) it was 7.08.

Consider `C=CC(=O)N1CC2(CCN(c3nc4c(c(N[C@H](CC(=O)NC)CC(C)C)n3)COC4)C2)C1` [Example 1-13, (3S)-N,5-dimethyl-3-((2-(2-(2-propenoyl)-2,6-diazaspiro[3.4]octan-6-yl)-5,7-dihydrofuro[3,4-d]pyrimidin-4-yl)amino)hexanamide], for which the figures for the negative-log IC50 (pIC50) in assay [1], in assay [2] and in assay [3] (setting [5]) were under 5.30, under 5.30 and 5.23, respectively.

Turning to `C=CC(=O)N1CC2(CCN(c3nc4c(c(N[C@@H](CC(C)C)Cn5ccnn5)n3)CCC(C)(C)C4)C2)C1` [Example 1-47, 1-(6-(7,7-dimethyl-4-(((2S)-4-methyl-1-(1H-1,2,3-triazol-1-yl)-2-pentanyl)amino)-5,6,7,8-tetrahydro-2H-quinazolinyl)-2,6-diazaspiro[3.4]octan-2-yl)-2-propen-1-one], the pIC50 was 4.85 in assay [1] and 6.31 in assay [2].

The record behind these values is patent US20230406860A1, “HETEROCYCLIC SPIRO COMPOUNDS AND METHODS OF USE” (AMGEN INC., priority 2020, published 2023).
